Patent US20260070887A1 (Shenzhen Zhongge Biological Technology Co., Ltd., priority 2022, published 2026)
Like-named read-outs stand apart in the source and are kept apart here.

What was measured:
KIF18A = KIF18A (Homo sapiens (Human), UniProt Q8NI77); assay: KIF18A ATPase activity under tubulin stimulation (ADP-Glo assay); type: biochemical; conditions: KIF18A 30 nM, ATP 150 μM, pig microtubules
OVCAR-3 cells = assay: OVCAR-3 cell proliferation (Cell Titer-Glo, 10 days); type: cell-based, human
Procedure, shortened: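 400 cells per well were seeded onto pre-dispensed compound (final 0.12 nM to 10 μM) in RPMI-1640 with 20% FBS and insulin, then co-cultured for 10 days. Viability was read as Cell Titer-Glo luminescence, inhibition was taken against 0.1% DMSO control, and IC50 came from nonlinear concentration-inhibition regression.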

HCT116 cells = assay: HCT116 cell anti-proliferation assay; type: cell-based; conditions: 6 days, Cell Titer-Glo
Method: HCT116 (ATCC, CCL-247) cells were cultured in McCoy's 5a complete medium (Gibco, 12330-031) containing 10% fetal bovine serum (Gibco, 10099-141C), 100 U penicillin and 100 μg/mL streptomycin (Gibco, 15140-122). The Promega kit Cell Titer-Glo (Promega: G7572) was used in this method for test.
HCT116 cells were cultured in T75 cell flasks (Corning, 430641) and the cells were placed in a 37° C., 5% CO2 incubator. Cells were passaged when reaching a cell density of 70%-80%, approximately twice per week. To perform the experiment, the test compounds were dissolved in DMSO to prepare a 10 mM stock solution, and the test compounds were added to the 384-well cell test plate (Corning, 3765) at the predetermined concentration (19.5 nM-[…]) using ECHO. […] cells were digested and 150 cells (60 μL medium) were seeded per well in the test plate. The 384-well plate was then centrifuged at 500 rpm for 1 minute, and then placed in a 37° C., 5% CO2 incubator for 6 days of cultivation. Six days later, the cell culture plate was equilibrated for 10 minutes at room temperature, 25 μL of Cell Titer-Glo was added to each well, and the mixture was shaken and mixed well and let stand for 5 minutes. The luminescence values for samples in various wells were read using a microplate reader in Luminescence mode.
The percentage of inhibition of cell proliferation by the test compound at each concentration was calculated by comparing with the values of the control group (0.2% DMSO). The IC50 values of the compounds were obtained by concentration-inhibition rate nonlinear regression analysis of the test compounds using GraphPad Prism 9.

Chain of KIF18A (Q8NI77 whole entry): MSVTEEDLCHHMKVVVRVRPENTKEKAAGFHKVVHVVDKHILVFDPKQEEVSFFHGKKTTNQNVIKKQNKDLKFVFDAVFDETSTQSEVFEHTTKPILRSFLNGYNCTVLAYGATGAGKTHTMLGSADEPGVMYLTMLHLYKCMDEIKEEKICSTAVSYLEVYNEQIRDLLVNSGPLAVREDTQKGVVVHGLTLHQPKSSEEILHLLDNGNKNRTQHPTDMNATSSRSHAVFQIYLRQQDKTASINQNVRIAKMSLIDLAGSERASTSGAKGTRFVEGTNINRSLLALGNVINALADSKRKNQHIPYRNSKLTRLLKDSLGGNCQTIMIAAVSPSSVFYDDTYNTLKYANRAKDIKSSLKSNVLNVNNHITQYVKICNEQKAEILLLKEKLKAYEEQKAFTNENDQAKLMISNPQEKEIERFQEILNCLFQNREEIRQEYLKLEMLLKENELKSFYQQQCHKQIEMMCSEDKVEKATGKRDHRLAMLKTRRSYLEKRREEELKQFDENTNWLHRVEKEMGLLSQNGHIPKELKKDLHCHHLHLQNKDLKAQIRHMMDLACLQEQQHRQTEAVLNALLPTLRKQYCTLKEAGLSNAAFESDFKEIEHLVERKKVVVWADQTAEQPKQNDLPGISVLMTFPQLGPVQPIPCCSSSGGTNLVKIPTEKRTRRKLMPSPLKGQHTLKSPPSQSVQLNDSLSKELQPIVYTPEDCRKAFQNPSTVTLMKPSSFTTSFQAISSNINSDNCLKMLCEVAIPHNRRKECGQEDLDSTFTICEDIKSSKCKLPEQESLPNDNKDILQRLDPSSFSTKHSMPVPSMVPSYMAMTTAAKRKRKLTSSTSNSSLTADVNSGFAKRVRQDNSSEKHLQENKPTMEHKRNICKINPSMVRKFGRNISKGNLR
Chain of KIF18A (P02550 whole entry partner): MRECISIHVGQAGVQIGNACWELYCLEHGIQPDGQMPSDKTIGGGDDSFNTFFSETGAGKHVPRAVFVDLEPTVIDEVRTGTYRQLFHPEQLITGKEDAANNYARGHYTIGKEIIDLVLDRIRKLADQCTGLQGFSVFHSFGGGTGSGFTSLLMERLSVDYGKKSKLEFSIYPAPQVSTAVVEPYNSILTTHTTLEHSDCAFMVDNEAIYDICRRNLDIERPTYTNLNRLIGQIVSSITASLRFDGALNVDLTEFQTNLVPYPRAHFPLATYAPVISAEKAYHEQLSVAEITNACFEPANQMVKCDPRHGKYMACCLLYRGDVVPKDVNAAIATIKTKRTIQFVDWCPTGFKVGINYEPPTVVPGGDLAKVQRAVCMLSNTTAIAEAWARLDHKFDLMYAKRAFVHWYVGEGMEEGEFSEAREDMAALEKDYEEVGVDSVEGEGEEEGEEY
Chain of KIF18A (P02554 whole entry partner): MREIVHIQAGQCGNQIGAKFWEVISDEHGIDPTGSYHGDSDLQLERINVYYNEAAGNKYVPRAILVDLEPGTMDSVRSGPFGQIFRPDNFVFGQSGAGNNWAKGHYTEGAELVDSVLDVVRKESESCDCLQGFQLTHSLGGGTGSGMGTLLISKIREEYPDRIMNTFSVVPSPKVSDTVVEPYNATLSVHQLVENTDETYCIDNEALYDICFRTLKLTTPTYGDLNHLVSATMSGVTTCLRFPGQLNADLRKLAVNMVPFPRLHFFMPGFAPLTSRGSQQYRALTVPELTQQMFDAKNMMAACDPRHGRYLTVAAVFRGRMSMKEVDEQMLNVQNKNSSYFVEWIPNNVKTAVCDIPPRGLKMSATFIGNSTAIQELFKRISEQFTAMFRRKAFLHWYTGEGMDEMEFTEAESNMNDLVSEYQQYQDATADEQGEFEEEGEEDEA

Row | IC50 (OVCAR-3 cells; Homo sapiens, OVCAR-3, 240 h) | IC50 (HCT116 cells) | Compound | IC50 (KIF18A) | IC50 (HCT116 cells; Homo sapiens, HCT-116, 144 h) | IC50 (OVCAR-3 cells)
1 | 50 to 500 nM | – | O=C(Nc1ccc(F)c2c1cc1n2CCOC1)c1ccc(NS(=O)(=O)CCO)cc1N1CCC(=C(F)F)CC1 [Example 321, 2-(4-(difluoromethylene)piperidin-1-yl)-N-(6-fluoro-3,4-dihydro-1H-[1,4]oxazino[4,3-a]indol-9-yl)-4-((2-hydroxyethyl)sulfonamido)benzamide] | ≤ 50 nM | > 10000 nM | –
2 | – | – | Nc1cc(NS(=O)(=O)CCO)cc(N2CCC3(CC2)CC3)c1C(=O)Nc1cccc(N2CCC(F)(F)CC2)c1 [Example 1, 2-amino-N-(3-(4,4-difluoropiperidin-1-yl)phenyl)-4-((2-hydroxyethyl)sulfonamide)-6-(6-azaspiro[2.5]octan-6-yl)benzamide] | ≤ 50 nM | – | ≤ 50 nM
3 | 50 to 500 nM | – | N#Cc1ccc(NC(=O)c2ccc(NS(=O)(=O)CCO)cc2N2CCC(=C(F)F)CC2)c2cc3n(c12)CCOC3 [Example 364, N-(6-cyano-3,4-dihydro-1H-[1,4]oxazino[4,3-a]indol-9-yl)-2-(4-(difluoromethylene)piperidin-1-yl)-4-((2-hydroxyethyl)sulfonamido)benzamide] | ≤ 50 nM | 8200 nM | –
4 | – | > 10000 nM | N#Cc1ccc(NC(=O)c2ccc(NS(=O)(=O)CCO)cc2N2CCC(=C(F)F)CC2)c2cc3n(c12)CCC(F)(F)C3 [Example 378] | 50 to 500 nM | – | ≤ 50 nM
5 | ≤ 50 nM | – | CC1(C)Cn2c(cc3c(NC(=O)c4ccc(NS(=O)(=O)CCO)cc4N4CCC(=C(F)F)CC4)cccc32)CO1 [Example 370, 2-(4-(difluoromethylene)piperidin-1-yl)-N-(3,3-dimethyl-3,4-dihydro-1H-[1,4]oxazino[4,3-a]indol-9-yl)-4-((2-hydroxyethyl)sulfonamido)benzamide] | 50 to 500 nM | > 10000 nM | –
6 | – | 8500 nM | COC1c2cc3c(NC(=O)c4ccc(NS(=O)(=O)CCO)cc4N4CCC5(CC4)CC5)cccc3n2CCC1(F)F (single isomer, unassigned) [Example 340-P2] | ≤ 50 nM | – | ≤ 50 nM
7 | – | – | CC1(C)Cn2c(cc3c(NC(=O)c4ccc(NS(=O)(=O)CCO)cc4N4CCC5(CC4)CC5)ccc(OC(F)F)c32)CO1 [Example 523] | 50 to 500 nM | – | ≤ 50 nM
8 | 50 to 500 nM | – | CC1(C)OCCn2c1cc1c(NC(=O)c3ccc(NS(=O)(=O)CCO)cc3N3CCC(=C(F)F)CC3)cccc12 [Compound 395, 2-(4-(difluoromethylene)piperidin-1-yl)-N-(1,1-dimethyl-3,4-dihydro-1H-[1,4]oxazino[4,3-a]indol-9-yl)-4-((2-hydroxyethyl)sulfonamido)benzamide] | ≤ 50 nM | > 10000 nM | –
9 | – | 2600 nM | CNc1cc(NS(=O)(=O)CCO)cc(N2CCC3(CC2)CC3)c1C(=O)Nc1cc(C)nc(N2CCC(F)(F)CC2)n1 [Example 4, N-(2-(4,4-difluoropiperidin-1-yl)-6-methylpyrimidin-4-yl)-4-(2-hydroxyethylsulfonamide)-2-methylamino-6-(6-azaspiro[2.5]octan-6-yl)benzamide] | 50 to 500 nM | – | ≤ 50 nM
10 | – | > 10000 nM | CC1(O)CCCn2c1cc1c(NC(=O)c3ccc(NS(=O)(=O)CCO)cc3N3CCC4(CC3)CC4)cccc12 (stereo not shown) [Example 372] | ≤ 50 nM | – | ≤ 50 nM
11 | 50 to 500 nM | – | CC1(C)Cn2c(cc3c(NC(=O)c4ccc(NS(=O)(=O)CCO)cc4N4CCC(=C(F)F)CC4)ccc(C#N)c32)CO1 [Compound 393, N-(6-cyano-3,3-dimethyl-3,4-dihydro-1H-[1,4]oxazino[4,3-a]indol-9-yl)-2-(4-(difluoromethylene)piperidin-1-yl)-4-((2-hydroxyethyl)sulfonamido)benzamide] | 50 to 500 nM | > 10000 nM | –
12 | – | 9800 nM | N#Cc1ccc(NC(=O)c2ccc(NS(=O)(=O)CCO)cc2N2CCC3(CC2)CC3)c2cc3n(c12)CCC(F)(F)C3 [Example 379] | ≤ 50 nM | – | ≤ 50 nM
13 | ≤ 50 nM | – | CC1(C)Cn2c(nc3c(NC(=O)c4ccc(NS(=O)(=O)CCO)cc4N4CCC(=C(F)F)CC4)cccc32)CO1 [Compound 394, 2-(4-(difluoromethylene)piperidin-1-yl)-N-(3,3-dimethyl-3,4-dihydro-1H-benzo[4,5]imidazo[2,1-c][1,4]oxazin-9-yl)-4-((2-hydroxyethyl)sulfonamido)benzamide] | ≤ 50 nM | > 10000 nM | –
14 | – | – | CC1Cn2c(cc3c(NC(=O)c4ccc(NS(=O)(=O)CCO)cc4N4CCC5(CC4)CC5)cccc32)C(C)O1 (single isomer, unassigned) [Compound 312-P3, N-(1,3-dimethyl-3,4-dihydro-1H-[1,4]oxazino[4,3-a]indol-9-yl)-4-((2-hydroxyethyl)sulfonamido)-2-(6-azaspiro[2.5]oct-6-yl)benzamide] | 50 to 500 nM | > 10000 nM | ≤ 50 nM

Row | Compound | IC50 (OVCAR-3 cells; Homo sapiens, OVCAR-3, 240 h) | IC50 (HCT116 cells) | IC50 (KIF18A) | IC50 (HCT116 cells; Homo sapiens, HCT-116, 144 h) | IC50 (OVCAR-3 cells)
15 | O=C(Nc1cccc2c1cc1n2CCOC1)c1ccc(NS(=O)(=O)CCO)cc1N1CCC2(CC1)CC2 [Example 235, N-(3,4-dihydro-1H-[1, 4]oxazino[4,3-a]indol-9-yl)-4-(2-hydroxyethylsulfonamido)-2-(6-azaspiro[2.5]octan-6-yl)benzamide] | ≤ 50 nM | – | ≤ 50 nM | > 10000 nM | –
16 | O=C(Nc1cccc2c1cc1n2CCOC1)c1ccc(NS(=O)(=O)CCO)cc1N1CCC(=C(F)F)CC1 [Example 319, 2-(4-difluoromethylene)piperidin-1-yl-N-(3,4-dihydro-1H-[1,4]oxazino[4,3-a]indol-9-yl)-4-((2-hydroxyethyl)sulfonamide) benzamide] | – | > 10000 nM | ≤ 50 nM | – | ≤ 50 nM
17 | CC1(C)Cn2c(cc3c(NC(=O)c4ccc(NS(=O)(=O)CCO)cc4N4CCC5(CC4)CC5)cccc32)CO1 [Example 371, N-(3,3-dimethyl-3,4-dihydro-1H-[1,4]oxazino[4,3-a]indol-9-yl)-4-(2-hydroxyethylsulfonamido)-2-(6-azaspiro[2.5]octan-6-yl)benzamide] | ≤ 50 nM | – | ≤ 50 nM | > 10000 nM | –
18 | COc1ccc(NC(=O)c2ccc(NS(=O)(=O)CCO)cc2N2CCC3(CC2)CC3)c2cc3n(c12)CC(C)(C)OC3 [Example 455, 4-((2-hydroxyethyl)sulfonamido)-N-(6-methoxy-3,3-dimethyl-3,4-dihydro-1H-[1,4]oxazinyl[4,3-a]indol-9-yl)-2-(6-azaspiro[2.5]oct-6-yl)benzamide] | ≤ 50 nM | – | 50 to 500 nM | > 10000 nM | –
19 | N#Cc1ccc(NC(=O)c2ccc(NS(=O)(=O)CCO)cc2N2CCC3(CC2)CC3)c2cc3n(c12)CCOC3 [Example 310, N-(6-cyano-3,4-dihydro-1H-[1,4]oxazino[4,3-a]indol-9-yl)-4-((2-hydroxyethyl)sulfonamido)-2-(6-azaspiro[2.5]oct-6-yl)benzamide] | ≤ 50 nM | – | ≤ 50 nM | 9000 nM | –
20 | COc1ccc(NC(=O)c2ccc(NS(=O)(=O)CCO)cc2N2CCC(=C(F)F)CC2)c2cc3n(c12)CC(C)(C)OC3 [Example 465, 2-(4-(difluoromethylene)piperidin-1-yl)-4-((2-hydroxyethyl)sulfonamido)-N-(6-methoxy-3,3-dimethyl-3,4-dihydro-1H-[1,4]oxazinyl[4,3-a]indol-9-yl)benzamide] | – | > 10000 nM | 50 to 500 nM | – | ≤ 50 nM
21 | COc1ccc(NC(=O)c2ccc(NS(=O)(=O)CCO)cc2N2CCC(=C(F)F)CC2)c2cc3n(c12)CCOC3 [Compound 405, 2-(4-(difluoromethylene)piperidin-1-yl)-4-((2-hydroxyethyl)sulfonamido)-N-(6-methoxy-3,4-dihydro-1H-[1,4]oxazinyl[4,3-a]indol-9-yl)benzamide] | – | > 10000 nM | ≤ 50 nM | – | ≤ 50 nM
22 | O=C(Nc1ccc(F)c2c1nc1n2CCOC1)c1ccc(NS(=O)(=O)CCO)cc1N1CCC2(CC1)CC2 [Example 308, N-(6-fluoro-3,4-dihydro-1H-benzo[4,5]imidazo[2,1-c][1,4]oxazin-9-yl)-4-((2-hydroxyethyl)sulfonamido)-2-(6-azaspiro[2.5]octan-6-yl)benzamide] | ≤ 50 nM | – | ≤ 50 nM | > 10000 nM | –
23 | CC1Cn2c(cc3c(NC(=O)c4ccc(NS(=O)(=O)CCO)cc4N4CCC5(CC4)CC5)cccc32)C(C)O1 (single isomer, unassigned) [Compound 312-P2A, N-(1,3-dimethyl-3,4-dihydro-1H-[1,4]oxazino[4,3-a]indol-9-yl)-4-((2-hydroxyethyl)sulfonamido)-2-(6-azaspiro[2.5]oct-6-yl)benzamide] | – | 6700 nM | ≤ 50 nM | – | ≤ 50 nM
